One assay concerns the target T1, human PD-L1 (Homo sapiens, UniProt Q9NZQ7).
T1 construct: purchased Sino Biologicals or R&D systems
The experiment in a line: PD-L1 SPR Binding Assay (Biacore), human. Conditions: 25° C. The method, then:
The protein was desalted to remove uncoupled biotin using spin columns into PBS. For analysis of binding, a Biacore 3000 instrument was used utilizing a CM5 sensor chip (GE Healthcare). Streptavidin was immobilized on the chip using standard amine-coupling chemistry at 25° C. with HBS-N (10 mM HEPES, 0.15 M NaCl, pH 7.4) as the running buffer. The carboxymethyl dextran surface was activated with a 12 min injection of a 1:1 ratio of 0.4 M 1-ethyl-3-(3-dimethylaminopropyl) carbodiimide hydrochloride (EDC)/0.1 M N-hydroxy succinimide (NHS) at a flow rate of 10 μl/min. For capture of streptavidin, protein was diluted to 0.1 mg/ml in 10 mM sodium acetate (pH 4.5) and captured by injecting 70 μl onto the activated chip surface. Residual activated groups were blocked with a 7 min injection of 1 M ethanolamine (pH 8.5). Biotinylated PD-L1 stock was diluted 1:100 in HBS-N and captured on one flow cell at 5 μl/min to a level of 1000-1300 RU. Buffer was changed to PBS/0.05% Tween 20 and a dilution series of the peptides was prepared in this buffer with a final DMSO concentration of 0.5%. The top concentrations were 200 nM or 500 nM with 6 2-fold dilutions. The SPR analysis was run at 25° C. at a flow rate of Flow rate 50 μl/min with 60 seconds association and 400 seconds disassociation. Data were corrected for DMSO excluded volume effects. All data were double-referenced for blank injections and reference surface using standard processing procedures and data processing and kinetic fitting were performed using Scrubber software, version 2.0c (Biologic Software). Data were fitted using mass transport model allowing for mass transport effects where appropriate.
In general terms: SPR reads the build-up and loss of mass on a sensor chip optically.

In the next assay the target is T2, PD-1/PD-L1 interaction (Homo sapiens, UniProt Q9NZQ7).
T2 construct: host or cells: CHO-K1 (human PD-L1) and Jurkat (human PD-1, NFAT-luciferase)
The experiment in a line: PD-1/PD-L1 Blockade Bioassay (Jurkat PD-1 NFAT-luciferase / CHO-K1 PD-L1). The note with it: FIG. 1 and Table 6. It counts as cell-based. The procedure:
Effector Jurkat cells engineered to overexpress human PD-1 and express a luciferase gene under the NFAT response element were purchased from Promega. Target CHO-K1 cells which overexpress human PD-L1 and an engineered cell surface protein designed to activate the Jurkat's T cell receptor in an antigen-independent manner were also purchased from Promega. CHO-K1 cells were plated the day before the assay in Ham's F-12 Medium+10% FBS and were allowed to adhere to the plate. On the day of the assay, media was removed and Jurkat cells were plated with a dose response of test articles in RPMI1640 media with 1% FBS (80 μL total volume per well). […] After 6 hours of incubation at 37° C., 5% CO2, 80 μL of Bio-Glo reagent (Promega) was added to each well and allowed to equilibrate for 10 minutes at room temperature. Luminescence was read on the Clariostar plate reader (BMG LabTech). Fold induction was calculated by dividing the luminescence signal by the average of the background wells (wells with both cell lines and no test article). Data was graphed in Prism and fit to a 4-parameter logistic curve.

Where no end group is shown, it is not given here. [ ]: non-standard residue; d: D form. hArg = N=C(N)NCCCC[C@H](N)C(=O)O; Aad = N[C@@H](CCCC(=O)O)C(=O)O; Nva = CCC[C@H](N)C(=O)O

T2 sequence (Q9NZQ7 19-290): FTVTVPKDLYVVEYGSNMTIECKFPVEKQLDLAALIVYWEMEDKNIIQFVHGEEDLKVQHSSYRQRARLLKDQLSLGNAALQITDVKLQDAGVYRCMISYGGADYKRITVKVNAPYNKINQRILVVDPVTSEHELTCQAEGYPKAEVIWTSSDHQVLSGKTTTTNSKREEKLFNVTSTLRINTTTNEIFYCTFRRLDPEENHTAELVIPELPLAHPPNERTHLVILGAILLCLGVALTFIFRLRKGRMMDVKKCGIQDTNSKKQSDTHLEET
T1 sequence (Q9NZQ7 19-290): as above

As usually defined, the Kd is the constant that tells how readily two partners part at equilibrium. A high value points to weaker binding. Regarding “Ac-DKCS[Aad]GWLTMCQKLHLCPSH-COOH [BCY11853]”, the Kd on human PD-L1 was determined as 17.6 nM.

Take “Ac-EKCS[Aad]GWLTMCLKLHLC (cysteine pairing not given here) [BCY11826]”: on human PD-L1, the Kd was determined as 18.2 nM.

On human PD-L1, “Ac-KCS[Aad]GWLTMCLKLHLC (cysteine pairing not given here) [BCY11824]” returned a Kd of 60 nM.

With Ac-SDKCS[Aad]GWLTMCLKLHLCA [BCY11828], on human PD-L1, binding was characterised by a dissociation constant (Kd) of 16.6 nM.

At human PD-L1, “Ac-SEKCS[Aad]GWLTMCLKLHLC (cysteine pairing not given here) [BCY11825]” returned a Kd of 28.8 nM.

As to “Ac-SEKCS[Aad]GWLTMCLKLHLCPSH (cysteine pairing not given here) [BCY11831]”, the Kd at human PD-L1 was found to be 13.2 nM.

As for “Ac-[hArg]CS[Aad]GWLTMCLKLHLC (cysteine pairing not given here) [BCY11827]”, at human PD-L1, the Kd stood at 30 nM.

SDKCSAGWLTMCQKLH[Nle]CA [BCY10074] showed a Kd at human PD-L1 of 36.1 nM.

The substance SDKCSAGWLTMCQKLH[Nva]CA [BCY10083] returned a Kd at human PD-L1 of 75 nM. Against the preceding substance, the Kd is about 2.1-fold higher.

For the substance SDKCSAGWLTMCQKL[Aib]LCA [BCY10073], the Kd on human PD-L1 stood at 15.8 nM.

Take SDKCSAGWLTMCQK[Nle]HLCA [BCY10071]: the affinity at human PD-L1, expressed as Kd, was 58.2 nM.

As for “SDKCSAGWLTMCQK[Nva]HLCA (cysteine pairing not given here) [BCY10084]”, the Kd on human PD-L1 came to 43.2 nM.

In the case of SDKCSAGWLTMCQ[Nle]LHLCA [BCY10068], the affinity at human PD-L1, expressed as Kd, was 54.5 nM.

The substance SDKCSAGWLTMC[Chg]KLHLCA [BCY10066] returned a Kd on human PD-L1 of 14.4 nM.

SDKCSAGWLT[Nle]CQKLHLCA [BCY10058] showed a Kd at human PD-L1 of 59.7 nM.

In turn, SDKCS[Abu]GWLTMCQKLHLCA [BCY10055] showed a Kd on human PD-L1 of 27.9 nM.

On to SDKCS[Aib]GWLTMCQKLHLCA [BCY10054], for which the Kd at human PD-L1 turned out to be 31.2 nM.

With SDKCS[Nle]GWLTMCQKLHLCA [BCY10062], the Kd at human PD-L1 was determined as 23 nM. This Kd and that of the substance before are within 1.5-fold of each other.

On to SD[HArg]CSAGWLTMCQKLHLCA [BCY10052], for which the affinity on human PD-L1, expressed as Kd, was 22.3 nM. The Kd values of the last two substances are within 1.5-fold of each other.

Take [Ac]SDKCSAGWLTMCKQLNLCPSH [BCY10467]: the “ability to block PD-1/PD-L1 interaction between PD-1 expressing T cells and CHO-K1 stable expressing PD-L1” value (“ability” below) on PD-1/PD-L1 interaction was “demonstrated the ability to block PD-1/PD-L1 interaction”.

On to “[Ac]SDKCSAGWLTMCKQLNLCPSH-COOH [BCY10939]”, for which the “ability” value on PD-1/PD-L1 interaction is reported as “demonstrated the ability to block PD-1/PD-L1 interaction”.

“[Ac]SD[HArg]CS[Nle]GWLT[hPhe]CLKL[Aib]LCPSH [BCY10959]”: at PD-1/PD-L1 interaction, the “ability” value is “demonstrated the ability to block PD-1/PD-L1 interaction”.

Source of the values: patent US12492224B2, “Bicyclic peptide ligands specific for PD-L1” (BicycleTx Limited, priority 2018, dated 2025).
